Measured values as given in ChEMBL document CHEMBL1147442, “Epimerisation of lutein to 3'-epilutein in processed foods” (2004).

Legend:
Assay type in all cases: functional
Capsicum [1] = assay: Ratio in baked paprika was determined
Prunus domestica [2] = assay: Ratio in bottled plum was determined
Rubus [3] = assay: Ratio in raw blackberries was determined
Rumex acetosa [4] = assay: Ratio in stewed sorrel was determined
Rumex acetosa [5] = assay: Ratio in steamed sorrel was determined
Anethum graveolens = assay: Ratio in pickled dill was determined
Prunus domestica [6] = assay: Ratio in raw plum was determined
Capsicum [7] = assay: Ratio in pickled paprika was determined
Rumex acetosa [8] = assay: Ratio in raw sorrel was determined
Rumex acetosa [9] = assay: Ratio in boiled sorrel was determined
Capsicum [10] = assay: Ratio in raw paprika was determined
Rubus [11] = assay: Ratio in botteled blackberries was determined
Rumex acetosa [12] = assay: Ratio in microwaved sorrel was determined

SMILES	Ratio (Capsicum [1]) [%]	Ratio (Prunus domestica [2]) [%]	Ratio (Rubus [3]) [%]	Ratio (Rumex acetosa [4]) [%]	Ratio (Rumex acetosa [5]) [%]	Ratio (Anethum graveolens) [%]	Ratio (Prunus domestica [6]) [%]	Ratio (Capsicum [7]) [%]	Ratio (Rumex acetosa [8]) [%]	Ratio (Rumex acetosa [9]) [%]	Ratio (Capsicum [10]) [%]	Ratio (Rubus [11]) [%]	Ratio (Rumex acetosa [12]) [%]
CC1=C[C@H](O)CC(C)(C)[C@H]1/C=C/C(C)=C/C=C/C(C)=C/C=C/C=C(C)/C=C/C=C(C)/C=C/C1=C(C)C[C@@H](O)CC1(C)C [LUTEIN]	47.5	29.3	58.6	16.4	12.7	28.7	34.2	49.2	36	28.6	53.5	37.4	24
C=C1C=CCC(C)(C)[C@H]1/C=C/C(C)=C/C=C/C(C)=C/C=C/C=C(C)/C=C/C=C(C)/C=C/C1=C(C)C[C@@H](O)CC1(C)C	5.1	4.7	–	8	11.3	3	–	2.2	–	6.5	–	7.9	5
CC1=C[C@@H](O)CC(C)(C)[C@H]1/C=C/C(C)=C/C=C/C(C)=C/C=C/C=C(C)/C=C/C=C(C)/C=C/C1=C(C)C[C@@H](O)CC1(C)C	3.8	7	–	8.8	9.2	13.8	–	12.5	–	9	–	17.4	6.4
